{"source": "paper PMC8333425", "about": "“Discovery of a dual Ras and ARF6 inhibitor from a GPCR endocytosis screen” (Nature Communications, 2021)", "key": {"[1]": {"target": "T1, 384 kinases from the human genome (Homo sapiens, UniProt Q13043)", "T1 construct": "purchased Eurofin/DiscoverX", "assay": "KINOMEscan kinase binding assay", "settings": "kinase MST1 (Entrez STK4)", "from_the_text": "(§1) We reasoned that because internalizing AT1R and its targeting to intracellular compartments can support continued MAPK signaling, and since 21 inhibits receptor internalization, it should also impede to some extent ERK1/2 activation. […] Receptor-mediated ERK1/2 signaling can involve upstream kinases such as PKC, BRAF, and MEK1[35],[36]. […] To exclude other kinases potentially involved in ERK1/2 and Akt activation as targets of 21, we ran a kinase binding assay (KINOMEscan™) on 384 kinases from the human genome. Remarkably, a very high selectivity score S(10) of 0.008 was found (Supplementary Data 3).\n(§2) The chemical library used for initial screening was from Chembridge DiverSet™ (60,000 compounds), Maybridge HitFinder™ (16,000 compounds), Maybridge (selected, 16,000 compounds), SPECS (selected, 16000 compounds), Microsource Discovery Spectrum (2000 compounds), Biomol (natural products, 500 compounds), Prestwick (commercialized products, 1120 compounds), SIGMA LopacTM (1280 compounds) and internal collection (synthesized at Université de Montréal-IRIC, ~4000 compounds). Compounds were all assigned an Université de Montréal number (UM) for internal use. Screen was performed at IRIC HTS facility. KINOMEscan™ profiling was serviced by Eurofin/DiscoverX (San Diego, USA).\n(§3) Description of Additional Supplementary Files […]\n(§4) File Name: Supplementary Data 3\n(§5) Description: KINOMEscan results. Compound 21’s effect was tested on 384 kinases. Data represent kinases binding to their ligands in presence of 10 µM of 21, as compared to DMSO (100%). Results are from one experiment and represent the average of duplicates. Three kinases (FLT3, KIT, and PDGFRB) out of 384 were more than 90% affected (selectivity score S(10) of 0.008). […]"}, "[2]": {"target": "T2, 384 kinases from the human genome (Homo sapiens, UniProt P22455)", "T2 construct": "purchased Eurofin/DiscoverX", "T2 sequence (P22455 22-802)": "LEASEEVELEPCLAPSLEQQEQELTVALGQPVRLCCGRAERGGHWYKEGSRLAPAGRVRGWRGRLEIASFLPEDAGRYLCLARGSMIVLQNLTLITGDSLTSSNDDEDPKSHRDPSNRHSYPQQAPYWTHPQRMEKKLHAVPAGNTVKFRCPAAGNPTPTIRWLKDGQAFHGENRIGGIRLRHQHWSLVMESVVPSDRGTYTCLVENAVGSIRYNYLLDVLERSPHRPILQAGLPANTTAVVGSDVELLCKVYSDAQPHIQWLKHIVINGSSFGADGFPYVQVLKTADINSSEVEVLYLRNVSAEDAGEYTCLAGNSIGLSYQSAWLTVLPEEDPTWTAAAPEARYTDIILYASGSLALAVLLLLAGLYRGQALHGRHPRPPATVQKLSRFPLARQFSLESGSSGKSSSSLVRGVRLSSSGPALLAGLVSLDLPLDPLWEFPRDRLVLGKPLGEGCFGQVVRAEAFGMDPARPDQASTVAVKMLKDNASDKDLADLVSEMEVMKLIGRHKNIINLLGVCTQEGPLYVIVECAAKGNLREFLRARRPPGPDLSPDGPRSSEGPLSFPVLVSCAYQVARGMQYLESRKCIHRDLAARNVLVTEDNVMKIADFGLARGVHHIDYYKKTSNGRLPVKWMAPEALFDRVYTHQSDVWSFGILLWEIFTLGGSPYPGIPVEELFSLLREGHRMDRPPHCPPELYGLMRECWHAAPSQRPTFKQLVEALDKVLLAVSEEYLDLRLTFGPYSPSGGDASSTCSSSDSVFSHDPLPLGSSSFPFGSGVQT", "assay": "KINOMEscan kinase binding assay", "settings": "kinase FGFR4 (Entrez FGFR4)", "from_the_text": "as §1, §2, §3, §4, §5"}, "[3]": {"target": "T3, 384 kinases from the human genome (Homo sapiens, UniProt P22694)", "T3 construct": "purchased Eurofin/DiscoverX", "assay": "KINOMEscan kinase binding assay", "settings": "kinase PKAC-beta (Entrez PRKACB)", "from_the_text": "as §1, §2, §3, §4, §5"}, "[4]": {"target": "T4, 384 kinases from the human genome (Homo sapiens, UniProt Q9Y6E0)", "T4 construct": "purchased Eurofin/DiscoverX", "assay": "KINOMEscan kinase binding assay", "settings": "kinase MST3 (Entrez STK24)", "from_the_text": "as §1, §2, §3, §4, §5"}, "[5]": {"target": "T5, 384 kinases from the human genome (Homo sapiens, UniProt Q8N568)", "T5 construct": "purchased Eurofin/DiscoverX", "assay": "KINOMEscan kinase binding assay", "settings": "kinase DCAMKL2 (Entrez DCLK2)", "from_the_text": "as §1, §2, §3, §4, §5"}, "[6]": {"target": "T6, 384 kinases from the human genome (Homo sapiens, UniProt P50613)", "T6 construct": "purchased Eurofin/DiscoverX", "assay": "KINOMEscan kinase binding assay", "settings": "kinase CDK7 (Entrez CDK7)", "from_the_text": "as §1, §2, §3, §4, §5"}, "[7]": {"target": "T7, 384 kinases from the human genome (Homo sapiens, UniProt P29376)", "T7 construct": "purchased Eurofin/DiscoverX", "T7 sequence (P29376 17-864)": "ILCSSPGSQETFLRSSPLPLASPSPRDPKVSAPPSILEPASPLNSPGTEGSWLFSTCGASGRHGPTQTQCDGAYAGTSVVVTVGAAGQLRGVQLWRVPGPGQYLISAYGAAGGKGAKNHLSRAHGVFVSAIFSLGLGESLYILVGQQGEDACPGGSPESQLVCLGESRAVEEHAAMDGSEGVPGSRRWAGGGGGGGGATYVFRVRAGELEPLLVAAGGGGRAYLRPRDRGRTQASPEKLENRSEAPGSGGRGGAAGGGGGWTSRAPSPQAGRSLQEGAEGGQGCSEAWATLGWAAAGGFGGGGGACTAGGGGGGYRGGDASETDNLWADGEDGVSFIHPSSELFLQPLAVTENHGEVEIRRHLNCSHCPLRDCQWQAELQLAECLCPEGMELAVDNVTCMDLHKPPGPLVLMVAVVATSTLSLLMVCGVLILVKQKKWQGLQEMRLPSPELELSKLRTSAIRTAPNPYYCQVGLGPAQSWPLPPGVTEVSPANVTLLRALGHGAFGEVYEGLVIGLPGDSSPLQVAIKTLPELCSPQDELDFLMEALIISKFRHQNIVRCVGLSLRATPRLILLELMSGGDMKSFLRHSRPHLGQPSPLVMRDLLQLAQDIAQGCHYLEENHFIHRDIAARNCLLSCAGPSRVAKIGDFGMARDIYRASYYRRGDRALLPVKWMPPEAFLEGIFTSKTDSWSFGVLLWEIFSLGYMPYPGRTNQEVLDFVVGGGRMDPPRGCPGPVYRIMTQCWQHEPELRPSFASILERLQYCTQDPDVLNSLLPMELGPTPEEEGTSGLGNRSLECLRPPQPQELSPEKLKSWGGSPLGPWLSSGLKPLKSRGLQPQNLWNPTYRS", "assay": "KINOMEscan kinase binding assay", "settings": "kinase LTK (Entrez LTK)", "from_the_text": "as §1, §2, §3, §4, §5"}, "[8]": {"target": "T8, 384 kinases from the human genome (Homo sapiens, UniProt O94806)", "T8 construct": "purchased Eurofin/DiscoverX", "assay": "KINOMEscan kinase binding assay", "settings": "kinase PRKD3 (Entrez PRKD3)", "from_the_text": "as §1, §2, §3, §4, §5"}, "[9]": {"target": "T9, 384 kinases from the human genome (Homo sapiens, UniProt O96017)", "T9 construct": "purchased Eurofin/DiscoverX", "assay": "KINOMEscan kinase binding assay", "settings": "kinase CHEK2 (Entrez CHEK2)", "from_the_text": "as §1, §2, §3, §4, §5"}, "[10]": {"target": "T10, 384 kinases from the human genome (Homo sapiens, UniProt P57078)", "T10 construct": "purchased Eurofin/DiscoverX", "assay": "KINOMEscan kinase binding assay", "settings": "kinase RIPK4 (Entrez RIPK4)", "from_the_text": "as §1, §2, §3, §4, §5"}, "[11]": {"target": "T11, 384 kinases from the human genome (Homo sapiens, UniProt P35916)", "T11 construct": "purchased Eurofin/DiscoverX", "T11 sequence (P35916 25-1363)": "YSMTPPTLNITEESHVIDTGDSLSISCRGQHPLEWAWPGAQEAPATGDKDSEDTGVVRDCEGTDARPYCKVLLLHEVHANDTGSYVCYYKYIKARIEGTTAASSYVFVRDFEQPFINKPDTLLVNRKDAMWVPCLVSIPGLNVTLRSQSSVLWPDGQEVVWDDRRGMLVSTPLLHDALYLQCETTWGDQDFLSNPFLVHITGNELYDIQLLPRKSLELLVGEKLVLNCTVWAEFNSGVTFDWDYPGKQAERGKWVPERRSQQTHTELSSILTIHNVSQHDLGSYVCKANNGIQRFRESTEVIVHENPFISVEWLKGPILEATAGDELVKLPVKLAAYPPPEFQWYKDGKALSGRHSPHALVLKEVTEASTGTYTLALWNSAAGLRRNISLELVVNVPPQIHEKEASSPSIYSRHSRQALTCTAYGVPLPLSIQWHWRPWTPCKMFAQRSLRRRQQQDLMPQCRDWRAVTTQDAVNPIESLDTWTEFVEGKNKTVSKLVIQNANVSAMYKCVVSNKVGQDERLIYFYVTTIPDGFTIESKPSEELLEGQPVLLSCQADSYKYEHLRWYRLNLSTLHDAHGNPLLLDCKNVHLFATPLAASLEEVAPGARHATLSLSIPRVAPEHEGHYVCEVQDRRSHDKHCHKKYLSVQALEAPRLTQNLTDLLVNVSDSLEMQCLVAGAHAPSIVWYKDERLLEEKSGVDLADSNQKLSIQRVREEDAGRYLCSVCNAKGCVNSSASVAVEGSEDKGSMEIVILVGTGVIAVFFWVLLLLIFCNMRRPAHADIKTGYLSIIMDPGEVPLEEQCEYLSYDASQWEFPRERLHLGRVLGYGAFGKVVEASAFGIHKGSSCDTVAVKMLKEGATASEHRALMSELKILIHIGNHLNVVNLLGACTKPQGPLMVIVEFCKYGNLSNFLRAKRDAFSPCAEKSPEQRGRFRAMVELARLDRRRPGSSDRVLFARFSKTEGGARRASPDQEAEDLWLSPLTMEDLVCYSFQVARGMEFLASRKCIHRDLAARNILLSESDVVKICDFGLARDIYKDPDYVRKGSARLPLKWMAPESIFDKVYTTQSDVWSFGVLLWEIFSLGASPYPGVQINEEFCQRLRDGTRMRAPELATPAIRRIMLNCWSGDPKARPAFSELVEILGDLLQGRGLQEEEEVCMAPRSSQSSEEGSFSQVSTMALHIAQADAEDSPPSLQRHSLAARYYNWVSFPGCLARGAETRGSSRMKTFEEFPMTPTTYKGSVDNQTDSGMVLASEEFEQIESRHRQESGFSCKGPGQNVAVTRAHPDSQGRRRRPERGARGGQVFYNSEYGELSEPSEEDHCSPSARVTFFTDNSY", "assay": "KINOMEscan kinase binding assay", "settings": "kinase FLT4 (Entrez FLT4)", "from_the_text": "as §1, §2, §3, §4, §5"}, "[12]": {"target": "T12, 384 kinases from the human genome (Homo sapiens, UniProt O75716)", "T12 construct": "purchased Eurofin/DiscoverX", "assay": "KINOMEscan kinase binding assay", "settings": "kinase STK16 (Entrez STK16)", "from_the_text": "as §1, §2, §3, §4, §5"}, "[13]": {"target": "T13, 384 kinases from the human genome (Homo sapiens, UniProt Q02763)", "T13 construct": "purchased Eurofin/DiscoverX", "T13 sequence (Q02763 23-1124)": "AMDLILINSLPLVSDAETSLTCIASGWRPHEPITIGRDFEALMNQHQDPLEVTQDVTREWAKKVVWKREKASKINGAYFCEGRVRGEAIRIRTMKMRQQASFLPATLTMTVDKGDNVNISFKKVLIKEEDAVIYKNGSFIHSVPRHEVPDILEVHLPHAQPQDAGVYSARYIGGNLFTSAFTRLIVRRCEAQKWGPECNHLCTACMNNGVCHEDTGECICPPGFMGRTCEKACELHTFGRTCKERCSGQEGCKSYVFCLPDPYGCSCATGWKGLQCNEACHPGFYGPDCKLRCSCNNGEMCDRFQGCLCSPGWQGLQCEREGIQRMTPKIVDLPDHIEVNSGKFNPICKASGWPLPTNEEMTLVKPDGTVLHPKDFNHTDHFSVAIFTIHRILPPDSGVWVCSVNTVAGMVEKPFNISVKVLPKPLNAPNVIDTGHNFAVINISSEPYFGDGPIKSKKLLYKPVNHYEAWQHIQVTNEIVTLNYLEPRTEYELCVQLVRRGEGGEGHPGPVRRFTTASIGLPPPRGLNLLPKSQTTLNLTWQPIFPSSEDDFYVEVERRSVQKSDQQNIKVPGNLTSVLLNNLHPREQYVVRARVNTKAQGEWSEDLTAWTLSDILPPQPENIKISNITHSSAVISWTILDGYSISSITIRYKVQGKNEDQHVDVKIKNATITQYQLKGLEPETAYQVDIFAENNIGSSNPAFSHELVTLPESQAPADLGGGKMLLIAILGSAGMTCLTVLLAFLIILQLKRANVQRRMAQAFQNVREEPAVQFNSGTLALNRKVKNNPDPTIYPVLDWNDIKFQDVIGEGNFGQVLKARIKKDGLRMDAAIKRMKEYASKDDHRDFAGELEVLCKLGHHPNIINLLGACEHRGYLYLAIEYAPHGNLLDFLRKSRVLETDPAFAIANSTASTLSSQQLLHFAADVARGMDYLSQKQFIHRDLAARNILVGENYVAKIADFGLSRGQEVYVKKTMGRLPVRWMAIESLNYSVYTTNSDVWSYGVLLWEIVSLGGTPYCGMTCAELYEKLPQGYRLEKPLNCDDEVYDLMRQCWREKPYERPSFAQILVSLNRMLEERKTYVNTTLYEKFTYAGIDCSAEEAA", "assay": "KINOMEscan kinase binding assay", "settings": "kinase TIE2 (Entrez TEK)", "from_the_text": "as §1, §2, §3, §4, §5"}, "[14]": {"target": "T14, 384 kinases from the human genome (Homo sapiens, UniProt P36897)", "T14 construct": "purchased Eurofin/DiscoverX", "T14 sequence (P36897 34-503)": "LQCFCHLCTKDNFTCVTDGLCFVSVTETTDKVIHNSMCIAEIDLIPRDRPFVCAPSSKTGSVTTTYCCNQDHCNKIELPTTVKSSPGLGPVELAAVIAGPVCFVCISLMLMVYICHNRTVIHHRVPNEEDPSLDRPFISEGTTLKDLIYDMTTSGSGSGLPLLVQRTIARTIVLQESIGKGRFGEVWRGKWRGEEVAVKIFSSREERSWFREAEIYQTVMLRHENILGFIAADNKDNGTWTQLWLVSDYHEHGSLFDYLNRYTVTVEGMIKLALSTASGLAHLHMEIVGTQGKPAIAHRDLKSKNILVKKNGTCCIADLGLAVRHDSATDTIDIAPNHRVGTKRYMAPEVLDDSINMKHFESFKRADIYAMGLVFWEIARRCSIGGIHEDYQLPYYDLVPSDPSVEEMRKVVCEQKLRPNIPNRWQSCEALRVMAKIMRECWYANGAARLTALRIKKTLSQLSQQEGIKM", "assay": "KINOMEscan kinase binding assay", "settings": "kinase TGFBR1 (Entrez TGFBR1)", "from_the_text": "as §1, §2, §3, §4, §5"}, "[15]": {"target": "T15, 384 kinases from the human genome (Homo sapiens, UniProt Q16512)", "T15 construct": "purchased Eurofin/DiscoverX", "assay": "KINOMEscan kinase binding assay", "settings": "kinase PKN1 (Entrez PKN1)", "from_the_text": "as §1, §2, §3, §4, §5"}, "[16]": {"target": "T16, 384 kinases from the human genome (Homo sapiens, UniProt Q8WTQ7)", "T16 construct": "purchased Eurofin/DiscoverX", "assay": "KINOMEscan kinase binding assay", "settings": "kinase GRK7 (Entrez GRK7)", "from_the_text": "as §1, §2, §3, §4, §5"}, "[17]": {"system": "BRAF", "assay": "Western blot of ERK1/2 phosphorylation induced by BRAF (BRAF-WT / BRAF-V600E)", "type": "cell-based, human", "procedure": "HEK293SL cells (10^5 cells per well) were seeded in a poly-L-lysine-coated six-well plate and transiently transfected with 3 μg Flag-AT1R, HA-B2R or HA-β2AR and/or 500 ng Flag-MEK1-WT, Flag-MEK1-DD, Flag-BRAF-WT, Flag-BRAF-V600E, Flag-K-Ras-WT, Flag-K-Ras-G12V, HA-ARF6-WT, or HA-ARF6-T27N. Gαq/11 KO and βarr1/2 KO cells were seeded onto 100 mm dishes at a density of 10^6 cells per dish. Next day, cells were transfected with 3 μg AT1R alone or along with 500 ng of β-arrestin2 using PEI. After 18 h of transfection, cells were detached and re-seeded onto poly-L-lysine coated 12-well plates (~1.5–2 × 10^5cells/well) for subsequent experiments. Forty-eight hours post transfection, in a 37 °C water bath, cells were serum-starved for 30 min, pretreated with DMSO (0.1%) or compound 21/Rasarfin (50 µM or at indicated concentrations) for 30 min, then stimulated or not with the indicated ligand [AngII (1 µM), BK (1 µM), Iso (10 µM) or EGF (100 ng/ml)] at indicated times. Cells were put on ice, washed with PBS and solubilized in 2x laemmli buffer (250 mM Tris–HCl pH 6.8, 2% SDS (w/v), 10% glycerol (v/v), 0.01% bromophenol blue (w/v) and 5% β-mercaptoethanol (v/v)) by heating at 65 °C for 15 min. Lysates were resolved on 10 or 14% SDS-PAGE, transferred to nitrocellulose membranes and immunoblotted for p-ERK1/2, ERK1/2, p-Akt, Akt, HA, Myc, β-actin or FLAG. ImageLab 5.2 software was used to quantify the digital blots as fold of the phosphorylated protein over total protein, which were then normalized as indicated in the figure legends. Uncropped immunoblots are provided in the Source Data file."}}, "note": "Where “and” joins values, the source holds several entries; their conditions need not be identical. Equal entries are not always repeated."}
{"smiles": "CC(C)C(=O)N1CCN(c2ccc(NC(=O)c3cc4ccccc4o3)cc2Cl)CC1", "note": "[Compound 21]", "values": [{"measurement": "Percent Control", "setting": "[1]", "result": 97, "unit": "%"}, {"measurement": "Percent Control", "setting": "[2]", "result": 91, "unit": "%"}, {"measurement": "Percent Control", "setting": "[3]", "result": 93, "unit": "%"}, {"measurement": "Percent Control", "setting": "[4]", "result": 84, "unit": "%"}, {"measurement": "Percent Control", "setting": "[5]", "result": 99, "unit": "%"}, {"measurement": "Percent Control", "setting": "[6]", "result": 83, "unit": "%"}, {"measurement": "Percent Control", "setting": "[7]", "result": 90, "unit": "%"}, {"measurement": "Percent Control", "setting": "[8]", "result": 98, "unit": "%"}, {"measurement": "Percent Control", "setting": "[9]", "result": 100, "unit": "%"}, {"measurement": "Percent Control", "setting": "[10]", "result": 87, "unit": "%"}, {"measurement": "Percent Control", "setting": "[11]", "result": 89, "unit": "%"}, {"measurement": "Percent Control", "setting": "[12]", "result": 100, "unit": "%"}, {"measurement": "Percent Control", "setting": "[13]", "result": 88, "unit": "%"}, {"measurement": "Percent Control", "setting": "[14]", "result": 79, "unit": "%"}, {"measurement": "Percent Control", "setting": "[15]", "result": 94, "unit": "%"}, {"measurement": "Percent Control", "setting": "[16]", "result": 90, "unit": "%"}, {"measurement": "ERK1/2 activation induced by overexpression of BRAF-V600E", "setting": "[17]; 50 μM", "result": "nor did it block ERK1/2 activation"}, {"measurement": "ERK1/2 phosphorylation relative to mock (S_Fig.4d)", "setting": "[17]; Flag-BRAF-V600E, listed as Comp 21", "result": "3.464 and 4.631 and 3.5221 and 2.836"}, {"measurement": "ERK1/2 phosphorylation relative to mock (S_Fig.4d)", "setting": "[17]; Flag-BRAF-WT, listed as Comp 21", "result": "1 and 1.273 and 1.416"}, {"measurement": "ERK1/2 phosphorylation relative to mock (S_Fig.4d)", "setting": "[17]; mock", "result": 1}]}
